Reference: patent US9951040B2, “1,3,5 -triazine based PI3K inhibitors as anticancer agents and a process for the preparation thereof” (Council of Scientific and Industrial Research, priority 2014, dated 2018)
Read-outs that look alike come from different tables or passages of the source.

What was measured:
PI3K alpha = PI3K alpha (Homo sapiens, UniProt P42336); test: PI3K-α assay (ADP-Glo enzyme inhibition); format: biochemical; settings: at 500 nm
Procedure: Compounds were evaluated for their ability to inhibit class I PI3-kinase enzyme alpha as given below. PI3K-α Assay: PI3K alpha (diluted in 12.5 mM Glycine-NaOH (pH 8.5), 50 mM KCl, 2.5 mM MgCl2, 1 mM DTT, 0.05% CHAPS) is assayed in total volume of 20 ul containing 12.5 mM glycine-NaOH (pH 8.5), 50 mM KCl, 2.5 mM MgCl2, 1 mM DTT, 0.05% CHAPS, 0.01 mM ATP and 0.05 mM diC8 PIP2. The enzyme is assayed for 80 min after which 20 ul of ADP-Glo reagent is added. After a further incubation of 40 min, 40 ul of Kinase Detection Buffer is added. The assays are incubated for 40 min and then read on PerkinElmer Envision for 1 sec/well.

PC-3 Cell line = test: MTT cell proliferation assay, PC-3; format: cell-based; settings: Homo sapiens, PC-3, 120 h, 5 days
Procedure: (§1) Human breast cancer cell lines MDAMB231, MFC-7 and human prostate carcinoma cell line PC-3 were obtained from European Collection of Cell Cultures (ECACC). Cells were grown in […] medium supplemented with 10% fetal bovine serum (FBS), penicillin (100 units/ml), streptomycin (100 μg/ml), L-glutamine (0.3 mg/ml), sodium pyruvate ([…]), and NaHCO3 (2 mg/ml). Cells were grown in CO2 incubator (Thermocon Electron Corporation, USA) at 37° C. in an atmosphere of 95% air and 5% CO2 with 98% humidity. Different molecules were dissolved in DMSO and were delivered to cell cultures in complete medium.
(§2) MTT assay was done to determine the viability of the cells and was done as described previously (Kumar et al, 2013). Briefly, 6×10^3 were seeded in 96 well plates and were treated with different concentrations of different molecules for 5 days. 20 μl of MTT dye (2.5 mg/ml) was added 3 h before the termination of the experiment. Formazen crystals were dissolved in 150 μl of DMSO and OD was measured at 570 nm.

MDA-MB231 Cell line = test: MTT cell proliferation assay, MDA-MB231; format: cell-based; settings: Homo sapiens, MDA-MB-231, 120 h, 5 days
Procedure: as §1, §2

MCF-7 Cell line = test: MTT cell proliferation assay, MCF-7; format: cell-based; settings: Homo sapiens, MCF7, 120 h, 5 days
Procedure: as §1, §2

[1] = read-out: In vitro PI3K α % of inhibition
[2] = read-out: inhibition against PI3K alpha

PI3K alpha, sequence (P42336 whole entry, species assumed): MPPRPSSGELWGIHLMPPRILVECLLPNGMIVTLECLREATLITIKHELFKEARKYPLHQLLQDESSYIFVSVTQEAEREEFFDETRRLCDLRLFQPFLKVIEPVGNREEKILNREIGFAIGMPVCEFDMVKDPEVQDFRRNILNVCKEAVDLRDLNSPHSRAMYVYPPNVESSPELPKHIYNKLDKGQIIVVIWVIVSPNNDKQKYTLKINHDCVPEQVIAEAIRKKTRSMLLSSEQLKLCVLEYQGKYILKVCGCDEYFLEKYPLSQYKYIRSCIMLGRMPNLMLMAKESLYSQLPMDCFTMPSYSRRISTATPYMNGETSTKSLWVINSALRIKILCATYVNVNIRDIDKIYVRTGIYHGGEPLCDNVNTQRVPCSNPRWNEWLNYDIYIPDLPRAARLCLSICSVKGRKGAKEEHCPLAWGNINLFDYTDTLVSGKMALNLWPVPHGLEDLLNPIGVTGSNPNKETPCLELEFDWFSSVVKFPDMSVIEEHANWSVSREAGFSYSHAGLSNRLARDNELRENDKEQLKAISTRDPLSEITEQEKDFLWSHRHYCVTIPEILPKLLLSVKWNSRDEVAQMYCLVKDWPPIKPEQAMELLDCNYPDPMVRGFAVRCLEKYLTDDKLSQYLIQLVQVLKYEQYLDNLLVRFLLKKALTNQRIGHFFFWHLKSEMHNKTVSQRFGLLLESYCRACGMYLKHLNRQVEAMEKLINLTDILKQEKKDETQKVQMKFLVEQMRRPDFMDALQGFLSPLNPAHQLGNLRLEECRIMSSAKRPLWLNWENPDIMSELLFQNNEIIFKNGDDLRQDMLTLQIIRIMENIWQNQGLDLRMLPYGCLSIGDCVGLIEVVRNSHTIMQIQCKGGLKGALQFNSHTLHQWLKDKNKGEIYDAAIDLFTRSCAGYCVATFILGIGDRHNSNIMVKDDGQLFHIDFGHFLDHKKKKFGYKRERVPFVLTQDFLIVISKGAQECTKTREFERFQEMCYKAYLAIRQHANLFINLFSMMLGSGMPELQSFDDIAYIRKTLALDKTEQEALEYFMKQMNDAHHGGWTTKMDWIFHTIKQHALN
PI3K alpha, sequence (P27986 whole entry partner, species assumed): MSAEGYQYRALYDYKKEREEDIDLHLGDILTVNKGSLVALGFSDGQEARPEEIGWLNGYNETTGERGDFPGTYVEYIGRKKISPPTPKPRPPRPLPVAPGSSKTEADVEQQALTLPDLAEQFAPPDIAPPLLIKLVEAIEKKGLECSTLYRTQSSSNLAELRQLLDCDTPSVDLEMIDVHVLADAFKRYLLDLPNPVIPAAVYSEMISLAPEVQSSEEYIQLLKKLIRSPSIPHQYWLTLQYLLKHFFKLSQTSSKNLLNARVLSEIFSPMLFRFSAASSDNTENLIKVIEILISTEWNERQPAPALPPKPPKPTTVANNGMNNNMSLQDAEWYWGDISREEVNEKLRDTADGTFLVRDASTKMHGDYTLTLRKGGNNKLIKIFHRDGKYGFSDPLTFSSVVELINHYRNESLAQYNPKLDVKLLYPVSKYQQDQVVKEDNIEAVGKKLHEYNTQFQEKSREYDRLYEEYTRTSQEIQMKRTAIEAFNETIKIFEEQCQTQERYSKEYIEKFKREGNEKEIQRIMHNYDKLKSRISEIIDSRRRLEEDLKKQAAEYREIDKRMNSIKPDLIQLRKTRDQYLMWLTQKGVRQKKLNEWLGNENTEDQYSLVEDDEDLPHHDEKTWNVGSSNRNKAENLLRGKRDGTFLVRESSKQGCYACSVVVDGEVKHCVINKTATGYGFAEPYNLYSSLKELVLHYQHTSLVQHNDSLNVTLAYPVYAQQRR

Row | inhibition at 0.5 µM (PI3K alpha; [1]) | inhibition at 0.5 µM (PI3K alpha; [2]) | Structure (SMILES) | inhibition at 10 µM (PC-3 Cell line) | inhibition at 10 µM (MDA-MB231 Cell line) | inhibition at 10 µM (MCF-7 Cell line) | In vitro PI3K α % of inhibition (PI3K alpha)
1 | > 70% | > 70% | Cc1cccc(OC2CCN(c3nc(N4CCOCC4)nc(-n4c(C(F)F)nc5ccccc54)n3)CC2)c1 [1B11, 4-(4-(2-(difluoromethyl)-1H-benzo[d]imidazol-1-yl)-6-(4-(m-tolyloxy)piperidin-1-yl)-1,3,5-triazin-2-yl)morpholine] | > 50% | 30 to 50% |  | 
2 | > 70% | > 70% | O=C(N(c1ccccc1)c1nc(N2CCOCC2)nc(N2CCC(Oc3ccc(OC(F)(F)F)cc3)CC2)n1)C(F)(F)F [1A9, 2,2,2-trifluoro-N-(4-morpholino-6-(4-(4-(trifluoromethoxy)phenoxy)piperidin-1-yl)-1,3,5-triazin-2-yl)-N-phenylacetamide] | 30 to 50% | > 50% | > 50% | 
3 | 50 to 70% |  | Cc1ccc(NC2CCN(c3nc(N4CCOCC4)nc(-n4c(C(F)F)nc5ccccc54)n3)CC2)cc1 [1B30, 1-(4-(2-(difluoromethyl)-1H-benzo[d]imidazol-1-yl)-6-morpholino-1,3,5-triazin-2-yl)-N-(p-tolyl)piperidin-4-amine] | 30 to 50% | 30 to 50% | > 50% | 
4 |  |  | FC(F)c1nc2ccccc2n1-c1nc(N2CCOCC2)nc(N2CCOCC2)n1 [ZSTK474, reference compound] | > 50% | > 50% | > 50% | ++ (++ indicates greater than 70% of inhibition)
5 | 50 to 70% |  | FC(F)c1nc2ccccc2n1-c1nc(N2CCOCC2)nc(N2CCC(Oc3ccccc3Cl)CC2)n1 [1B7, 4-(4-(4-(2-chlorophenoxy)piperidin-1-yl)-6-(2-(difluoromethyl)-1H-benzo[d]imidazol-1-yl)-1,3,5-triazin-2-yl)morpholine] |  | 30 to 50% | > 50% | 
6 | > 70% | > 70% | O=C(N(c1ccc(F)cc1)c1nc(N2CCOCC2)nc(N2CCC(Oc3ccccc3)CC2)n1)C(F)(F)F [1A5, 2,2,2-trifluoro-N-(4-fluorophenyl)-N-(4-morpholino-6-(4-phenoxypiperidin-1-yl)-1,3,5-triazin-2-yl)acetamide] | > 50% | 30 to 50% | 30 to 50% | 
7 | > 70% | > 70% | Cc1ccccc1OC1CCN(c2nc(N3CCOCC3)nc(-n3c(C(F)F)nc4ccccc43)n2)CC1 [1B12, 4-(4-(2-(difluoromethyl)-1H-benzo[d]imidazol-1-yl)-6-(4-(o-tolyloxy)piperidin-1-yl)-1,3,5-triazin-2-yl)morpholine] | 30 to 50% | 30 to 50% | > 50% | 
8 | > 70% | > 70% | COc1ccc(NC2CCN(c3nc(N4CCOCC4)nc(-n4c(C(F)F)nc5ccccc54)n3)CC2)cc1 [1B24, 1-(4-(2-(difluoromethyl)-1H-benzo[d]imidazol-1-yl)-6-morpholino-1,3,5-triazin-2-yl)-N-(4-methoxyphenyl)piperidin-4-amine] |  | 30 to 50% |  | 
9 | 50 to 70% |  | Fc1ccccc1NC1CCN(c2nc(N3CCOCC3)nc(-n3c(C(F)F)nc4ccccc43)n2)CC1 [1B27, 1-(4-(2-(difluoromethyl)-1H-benzo[d]imidazol-1-yl)-6-morpholino-1,3,5-triazin-2-yl)-N-(2-fluorophenyl)piperidin-4-amine] | 30 to 50% | 30 to 50% | > 50% | 
10 | 50 to 70% |  | COc1ccc(OC2CCN(c3nc(N4CCOCC4)nc(-n4c(C(F)F)nc5ccccc54)n3)CC2)cc1 [1B2, 4-(4-(2-(difluoromethyl)-1H-benzo[d]imidazol-1-yl)-6-(4-(4-methoxyphenoxy)piperidin-1-yl)-1,3,5-triazin-2-yl)morpholine] | 30 to 50% | > 50% | > 50% | 
11 | > 70% | > 70% | Fc1ccc(OC2CCN(c3nc(N4CCOCC4)nc(-n4c(C(F)F)nc5ccccc54)n3)CC2)cc1 [1B1, 4-(4-(2-(difluoromethyl)-1H-benzo[d]imidazol-1-yl)-6-(4-(4-fluorophenoxy)piperidin-1-yl)-1,3,5-triazin-2-yl)morpholine] | > 50% | > 50% | > 50% | 
12 | 50 to 70% |  | Cc1ccccc1NC1CCN(c2nc(N3CCOCC3)nc(-n3c(C(F)F)nc4ccccc43)n2)CC1 [1B32, 1-(4-(2-(difluoromethyl)-1H-benzo[d]imidazol-1-yl)-6-morpholino-1,3,5-triazin-2-yl)-N-(o-tolyl)piperidin-4-amine] | 30 to 50% | 30 to 50% | > 50% | 
13 | 50 to 70% |  | FC(F)c1nc2ccccc2n1-c1nc(N2CCOCC2)nc(N2CCC(Oc3ccc(Cl)cc3)CC2)n1 [1B5, 4-(4-(4-(4-chlorophenoxy)piperidin-1-yl)-6-(2-(difluoromethyl)-1H-benzo[d]imidazol-1-yl)-1,3,5-triazin-2-yl)morpholine] |  | 30 to 50% | > 50% | 
14 | > 70% | > 70% | FC(F)c1nc2ccccc2n1-c1nc(N2CCOCC2)nc(N2CCC(Nc3ccc(Cl)c(Cl)c3)CC2)n1 [1B26, N-(3,4-dichlorophenyl)-1-(4-(2-(difluoromethyl)-1H-benzo[d]imidazol-1-yl)-6-morpholino-1,3,5-triazin-2-yl)piperidin-4-amine] | 30 to 50% | > 50% | > 50% | 
